For 19 molecules, inhibition and IC50 results are on record in US9409864B2, “Sulfonamide TRPA1 receptor antagonists” (ARIO PHARMA LIMITED, priority 2013, dated 2016).

Structures are written as SMILES.

This assay has as its target T1, native human TRPA1 receptors (Homo sapiens, UniProt O75762).
T1 construct: stably expressing native human TRPA1 receptors were used; endogenous in cells; host or cells: A549 human lung adenocarcinoma epithelial cell line
As to the kind of experiment: PF-4840154 (1 μM)-induced Ca2+ fluorescence measurements in A549 cell line. In kind it is cell-based. Particulars: for inhibition at 10 µM: 10 μM compound against 1 μM PF-4840154, A549 cells; for IC50: A549 cells. On the procedure: PF-4840154 (1 μM)-Induced Ca^2+ Fluorescence Measurements in A549 Cell Line
Human lung adenocarcinoma epithelial cell line (A549) stably expressing native human TRPA1 receptors were used. The cells were cultured in medium consisting of Eagle's minimal essential medium (EMEM) supplemented with 10% fetal bovine serum (FBS), penicillin (100 IU/ml), streptomycin ([…]), L-glutamine (2 mM), sodium bicarbonate (2.5 g/L) and HEPES (24 mM). Cells were kept at 37° C. in 5% CO2/humidified air. For the experiments the cells were seeded at a density of 16,000 cells/well into 96-well black, clear-bottom plates. After 24 hours incubation the cells were loaded with medium supplemented with 2.5 mM probenecid, 3 μM of the calcium sensitive fluorescent dye Fluo-4 AM and 0.01% pluronic acid, for 30 min at 37° C. Afterwards the loading solution was aspirated and 100 μl/well of assay buffer: Hank's Balanced Salt Solution (HBSS) supplemented with 2.5 mM probenecid and 500 μM Brilliant Black (Aldrich) was added. Stock solutions (100 mM) of ligands were made in Dimethyl Sulfoxide (DMSO) and stored at −20° C. Serial dilutions of ligands for experimental use were made in HBSS buffer. After placing both plates (cell culture and compound plate) into the FlexStation II (Molecular Device, Union City, Calif. 94587, US), fluorescence changes were measured. On-line additions were carried out in a volume of […]. To facilitate drug diffusion into the wells in antagonist type experiments, the studies were performed at 36.5° C. and three cycles of mixing (25 μl from each well moved up and down 3 times) were performed immediately after antagonist injection to the wells. All exemplified compounds were tested alone (to address residual agonistic activity) and against 1 μM of PF-4840154 to address inhibitory activity at the initial concentration of 10 μM. For selected examples the entire inhibitory concentration-response curves were constructed and the IC50 value calculated.
PF-4840154 (1 μM) increased [Ca^2+] in the vast majority (95%) of cultured cells which were thereby identified as TRPA1 expressing cells.

The mark [1] stands for this setting: against PF-4840154 (1 μM)-evoked [Ca2+]i mobilization.

T1 sequence (O75762 whole entry): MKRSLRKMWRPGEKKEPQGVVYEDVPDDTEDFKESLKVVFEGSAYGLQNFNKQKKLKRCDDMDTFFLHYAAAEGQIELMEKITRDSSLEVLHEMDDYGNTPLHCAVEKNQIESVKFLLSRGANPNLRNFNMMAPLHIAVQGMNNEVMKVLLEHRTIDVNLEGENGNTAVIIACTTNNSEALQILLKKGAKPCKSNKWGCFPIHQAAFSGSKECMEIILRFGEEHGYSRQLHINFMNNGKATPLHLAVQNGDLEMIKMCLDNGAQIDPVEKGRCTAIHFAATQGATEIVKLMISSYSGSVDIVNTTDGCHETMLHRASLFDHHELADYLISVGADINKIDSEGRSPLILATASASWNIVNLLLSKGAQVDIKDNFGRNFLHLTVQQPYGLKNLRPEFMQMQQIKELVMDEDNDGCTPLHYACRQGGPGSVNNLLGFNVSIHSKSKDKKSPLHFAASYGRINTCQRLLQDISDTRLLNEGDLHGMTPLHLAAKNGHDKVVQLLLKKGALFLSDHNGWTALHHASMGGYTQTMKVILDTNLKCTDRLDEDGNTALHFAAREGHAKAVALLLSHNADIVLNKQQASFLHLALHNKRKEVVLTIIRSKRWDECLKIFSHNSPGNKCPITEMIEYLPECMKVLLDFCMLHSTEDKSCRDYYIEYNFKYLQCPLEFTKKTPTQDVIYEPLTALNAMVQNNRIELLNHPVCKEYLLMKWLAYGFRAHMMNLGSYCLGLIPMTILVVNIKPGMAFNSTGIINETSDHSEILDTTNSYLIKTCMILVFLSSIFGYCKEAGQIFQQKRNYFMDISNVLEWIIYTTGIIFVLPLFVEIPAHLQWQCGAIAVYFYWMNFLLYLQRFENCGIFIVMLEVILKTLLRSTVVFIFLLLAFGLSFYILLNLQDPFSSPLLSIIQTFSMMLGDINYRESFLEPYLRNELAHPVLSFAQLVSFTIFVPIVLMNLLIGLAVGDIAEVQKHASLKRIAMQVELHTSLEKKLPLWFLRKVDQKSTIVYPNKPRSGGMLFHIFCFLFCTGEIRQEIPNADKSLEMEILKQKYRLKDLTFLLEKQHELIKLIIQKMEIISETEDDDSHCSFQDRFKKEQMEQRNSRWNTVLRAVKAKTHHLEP

As to `C=C(C(=O)NCc1ccnc(-c2ccc(C(F)(F)F)cc2)c1)N(CC)S(=O)(=O)c1ccc(F)c(F)c1` [Example 35, 2-[(3,4-difluorophenyl)sulfonyl-ethyl-amino]-N-[[2-[4-(trifluoromethyl)phenyl]-4-pyridyl]methyl]prop-2-enamide], testing at 10 µM gave an inhibition of 100%. Besides, the half-inhibitory concentration (IC50) – broadly, the concentration at which inhibition is half-maximal – under setting [1] is 0.058 µM.
Taken in the same sequence, the figures for `C=C(C(=O)NCc1ccnc(-c2ccc(C(F)(F)F)cc2)c1)N(CC)S(=O)(=O)c1cccc(F)c1` [Example 36] were 100% and 0.118 µM.
Taken in the same sequence, the figures for `C=C(C(=O)NCc1cc(-c2ccc(C(F)(F)F)cc2)nc(N(C)C)c1)N(CC)S(=O)(=O)c1ccc(Cl)s1` [Example 39, 2-[(5-chloro-2-thienyl)sulfonyl-ethyl-amino]-N-[[2-dimethylamino-6-[4-(trifluoromethyl)phenyl]-4-pyridyl]methyl]prop-2-enamide] were 100% and 0.02 µM.
On to `C=C(C(=O)NCc1cc(-c2ccc(C(F)(F)F)cc2)nc(N(C)C)c1)N(CC)S(=O)(=O)c1cccs1` [Example 41, N-[[2-dimethylamino-6-[4-(trifluoromethyl)phenyl]-4-pyridyl]methyl]-2-(ethyl(2-thienylsulfonyl)amino)prop-2-enamide], for which the inhibition (in general, the relative decrease from the control value, in per cent) at 10 µM was determined as 96%. In addition, it took 0.135 µM to reach half-maximal inhibition under setting [1] (IC50).
In the case of `C=C(C(=O)NCc1cc(-c2ccc(C(F)(F)F)cc2)nc(N2CCOCC2)c1)N(CC)S(=O)(=O)c1ccc(F)cc1` [Example 42, 2-[ethyl-(4-fluorophenyl)sulfonyl-amino]-N-[[2-morpholino-6-[4-(trifluoromethyl)phenyl]-4-pyridyl]methyl]prop-2-enamide], the inhibition at 10 µM worked out at 100%. Further, the IC50 under setting [1] was found to be 0.104 µM.
Molecule `C=C(C(=O)NCc1cc(-c2ccc(C(F)(F)F)cc2)nc(N2CCOCC2)c1)N(CC)S(=O)(=O)c1ccc(Cl)s1` [Example 43, 2-[(5-chloro-2-thienyl)sulfonyl-ethyl-amino]-N-[[2-morpholino-6-[4-(trifluoromethyl)phenyl]-4-pyridyl]methyl]prop-2-enamide] yielded an inhibition at 10 µM of 100%. The same molecule came in with a half-inhibitory concentration (IC50) under setting [1] of 0.048 µM.
Taken in the same sequence, the figures for `C=C(C(=O)NCc1cc(OC(C)C)nc(-c2ccc(C(F)(F)F)cc2)c1)N(CC)S(=O)(=O)c1ccc(F)cc1` [Example 44, 2-[ethyl-(4-fluorophenyl)sulfonyl-amino]-N-[[2-isopropoxy-6-[4-(trifluoromethyl)phenyl]-4-pyridyl]methyl]prop-2-enamide] were 100% and 0.018 µM.
For `CCN(C1(C(=O)NCc2cc(-c3ccc(C(F)(F)F)cc3)nc(N(C)C)c2)CC1)S(=O)(=O)c1ccc(F)cc1` [Example 45, N-[[2-dimethylamino-6-[4-(trifluoromethyl)phenyl]-4-pyridyl]methyl]-1-[ethyl-(4-fluorophenyl)sulfonyl-amino]cyclopropanecarboxamide], in that order: 100% and 0.151 µM.
For `CCN(C1(C(=O)NCc2ccnc(-c3ccc(C(F)(F)F)cc3)c2)CC1)S(=O)(=O)c1ccc(Cl)s1` [Example 46, 1-[(5-chloro-2-thienyl)sulfonyl-ethyl-amino]-N-[[2-[4-(trifluoromethyl)phenyl]-4-pyridyl]methyl]cyclopropanecarboxamide], in that order: 97% and 0.063 µM.
`CCN(C1(C(=O)NCc2cccc(-c3ccc(OC(F)(F)F)cc3)c2)CC1)S(=O)(=O)c1ccc(Cl)s1` [Example 47, 1-[(5-chloro-2-thienyl)sulfonyl-ethyl-amino]-N-[[3-[4-(trifluoromethoxy)phenyl]phenyl]methyl]cyclopropanecarboxamide]: the inhibition at 10 µM worked out at 96%. Under setting [1], this molecule had an IC50 of 0.113 µM.
Taken in the same sequence, the figures for `CCN(C1(C(=O)NCc2cc(OC)nc(-c3ccc(C(F)(F)F)cc3)c2)CC1)S(=O)(=O)c1ccc(F)cc1` [Example 48, 1-[ethyl-(4-fluorophenyl)sulfonyl-amino]-N-[[2-methoxy-6-[4-(trifluoromethyl)phenyl]-4-pyridyl]methyl]cyclopropanecarboxamide] were 96% and 0.26 µM.
Taken in the same sequence, the figures for `CCN(C1(C(=O)NCc2cc(OC(C)C)nc(-c3ccc(C(F)(F)F)cc3)c2)CC1)S(=O)(=O)c1ccc(F)cc1` [Example 49, 1-[ethyl-(4-fluorophenyl)sulfonyl-amino]-N-[[2-isopropoxy-6-[4-(trifluoromethyl)phenyl]-4-pyridyl]methyl]cyclopropanecarboxamide] were 98% and 0.095 µM.
Consider `CCOc1cc(CNC(=O)C2(N(CC)S(=O)(=O)c3ccc(F)cc3)CC2)cc(-c2ccc(C(F)(F)F)cc2)n1` [Example 52, N-[[2-ethoxy-6-[4-(trifluoromethyl)phenyl]-4-pyridyl]methyl]-1-[ethyl-(4-fluorophenyl)sulfonyl-amino]cyclopropanecarboxamide], for which the inhibition at 10 µM stood at 99%. Under setting [1], this molecule had an IC50 of 0.087 µM.
Consider `C=C(C(=O)NCc1cc[n+]([O-])c(-c2ccc(C(F)(F)F)cc2)c1)N(CC)S(=O)(=O)c1ccc(F)cc1` [Example 54, 2-[ethyl-(4-fluorophenyl)sulfonyl-amino]-N-[[1-oxido-2-[4-(trifluoromethyl)phenyl]pyridin-1-ium-4-yl]methyl]prop-2-enamide], for which the inhibition at 10 µM was 47%. The molecule further displayed an IC50 (against PF-4840154 (1 μM), cells printed in μM) greater than 10 µM.
In turn, `C=C(C(=O)NCc1cccc(-c2ccc(OC(F)(F)F)cc2)c1)N(CC)S(=O)(=O)c1ccc(Cl)s1` [Example 55, 2-[(5-chloro-2-thienyl)sulfonyl-ethyl-amino]-N-[[3-[4-(trifluoromethoxy)phenyl]phenyl]methyl]prop-2-enamide] returned an inhibition at 10 µM of 100%. The same molecule gave a 50% inhibitory concentration (IC50) under setting [1] of 0.031 µM.
For `C=C(C(=O)NCc1ccnc(-c2ccc(C(F)(F)F)cc2)c1)N(C)S(=O)(=O)c1ccc(F)cc1` [Example 56, 2-[(4-fluorophenyl)sulfonyl-methyl-amino]-N-[[2-[4-(trifluoromethyl)phenyl]-4-pyridyl]methyl]prop-2-enamide], in that order: 100% and 0.275 µM.
`CN(C1(C(=O)NCc2cccc(-c3ccc(OC(F)(F)F)cc3)c2)CC1)S(=O)(=O)c1ccc(F)cc1` [Example 57, 1-[(4-fluorophenyl)sulfonyl-methyl-amino]-N-[[3-[4-(trifluoromethoxy)phenyl]phenyl]methyl]cyclopropanecarboxamide]: 10 µM produced 97% inhibition. Under setting [1], this molecule displayed an IC50 of 0.275 µM.
Taken in the same sequence, the figures for `CN(C1(C(=O)NCc2cccc(-c3ccc(C(F)(F)F)cc3)c2)CC1)S(=O)(=O)c1ccc(F)cc1` [Example 58, 1-[(4-fluorophenyl)sulfonyl-methyl-amino]-N-[[3-[4-(trifluoromethyl)phenyl]phenyl]methyl]cyclopropanecarboxamide] were 100% and 0.16 µM.
For the molecule `CCN(C1(C(=O)NCc2cc(-c3ccc(C(F)(F)F)cc3)ccn2)CC1)S(=O)(=O)c1ccc(F)cc1` [Example 60, 1-[ethyl-(4-fluorophenyl)sulfonyl-amino]-N-[[4-[4-(trifluoromethyl)phenyl]-2-pyridyl]methyl]cyclopropanecarboxamide], the inhibition at 10 µM was found to be 100%. Moreover, under setting [1], the 50% inhibitory concentration (IC50) was 0.423 µM.
